According to patent US6803466B1, “HIV/FIV protease inhibitors having a small P3 residue” (The Scripps Research Institute, priority 1997, dated 2004):

Experiments:
[1] = system: I84V mutant; assay: Cell culture IC90, I84V mutant; type: cell-based, HIV; conditions: Human immunodeficiency virus 1, read-out: IC90 against the I84V mutant
[2] = system: HIV WEAU-1.6 in MT-2 cells; assay: microbe, parasite or virus in culture; type: cell-based
Procedure: The results from tissue culture assays against SIV (FIG. 14) and HIV (FIG. 14) were equally encouraging. […] The effectiveness of compound 1200 against HIV was measured by determining the percentage of viable cells remaining in culture over time in the presence and absence of drug (FIG. 14). In the control, HIV caused formation of multinucleated syncytia and 100% cell death by 9 days post infection. However, the cells cultured with 1 μg/ml (1.1 μM) or 5 μg/ml (5.5 μM) of inhibitor 1200 remained 100% viable after 1 month, identical to results obtained in the absence of virus infection. To test for virus in these cultures, supernatants were removed and added to 1×10^5 uninfected MT-2 cells after a 1:5 dilution with fresh CM. […] In contrast, when 2×10^5 infected MT-2 cells that had been treated with compound 1200 for two weeks were removed and replated in fresh medium with or without compound 1200 only MT-2 cells cultured in the absence of compound 1200 were dead within 4 days (data not shown). […] Cultures are being carried continuously in the presence of compound 12 to look for resistance development. Tests are also underway to determine the level of efficacy of the compound against a defined panel of drug-resistant HIVs.
WEAU-1.6, a kind gift of George Shaw, University of Alabama (^18), a CXCR4 utilizing isolate, was used for all studies. 2×10^5 MT-2 cells in 0.1 ml were infected for 4 hr, at 37° C., using WEAU-1.6 at 25 TCID50. Before establishing cultures for inhibitor assessment infected cells were washed 3 times with complete medium (CM), which was RPMI-1640 supplemented with 10% FBS, […], 200 mM L-glutamine, and […] of gentamicin sulfate, to remove any unbound virus. For inhibitor assessment cultures were established in duplicate or triplicate using 5×10^4 infected cells and 1×10^5 uninfected cells in a total volume of 1.5 mls in Costar 6 well-plates. Once cultures were established they were split 1:4 every 3 days, and given fresh CM. Compound 12 (from a 10 mg/ml stock in DMSO) was added at […] at initiation of the culture and after each split. For testiing of the antiviral efficacy of compound 1200 in MT-2 were assessed every day using a Olympus (model) inverted microscope equipped with phase contrast objectives. When MT-2 cells are infected with WEAU-1.6 they form syncytia and die with in 24 hours, events easily discernible visually. A total of 200 cells were counted in each well, and when syncytia were noted, cells were removed and tested for viability by using trypan-blue. Results are expressed as the average of viable cells.

[3] = system: feline T-cells; assay: Toxicity to feline T-cells in culture; type: cell-based
Procedure: For FIV, the assays were performed in FIV-infected feline T-cells which were cultured in the presence of compound 1200 at different concentrations over the course of 1 month. Each data in FIG. 14 represents the amount of pelletable FIV reverse transcriptase in the culture supernatant. […] Furthermore, this inhibitor was not toxic to feline T-cells. After one month, the drug-treated cultures were split and replated with and without compound 1200.
The lymphocytic cell line 104-C1 (provided by C. Grant) was used as the target for infection. Cells were cultured in RPMI-1640 media supplemented with 10% FBS, 200 μM L-Glutamine, 1×MEM-Vitamins, 100 μM Sodium Pyruvate, 1×Non-Essential Amino Acids, 5.5×10−5M b-ME, 50 μg/ml Gentamicin, 50 U/ml human recombinant Interleukin-2 (provided by Hoffmann-LaRoche) and 7.5 μg/ml Concanavalin-A. For inhibitor assessment, 5×10^6 cells were infected with FIV-PPR (4×105 RT units) in 1 mL culture for 2 hr at 37° C. No virus and virus only controls were incubated in a similar manner. The cells were then washed with Hanks-buffered saline solution (HBSS) and resuspended in 10 ml of complete medium. […] The culture supernatants were monitored for the presence of pelletable reverse transcriptase activity at weekly intervals, as follows. […] The paper was then dried and counted on a scintillation counter.

[4] = system: MT-2 cells; assay: Toxicity to host cells of the HIV assay; type: cell-based
Procedure: The results from tissue culture assays against SIV (FIG. 14) and HIV (FIG. 14) were equally encouraging. […] The effectiveness of compound 1200 against HIV was measured by determining the percentage of viable cells remaining in culture over time in the presence and absence of drug (FIG. 14). In the control, HIV caused formation of multinucleated syncytia and 100% cell death by 9 days post infection. However, the cells cultured with 1 μg/ml (1.1 μM) or 5 μg/ml (5.5 μM) of inhibitor 1200 remained 100% viable after 1 month, identical to results obtained in the absence of virus infection. To test for virus in these cultures, supernatants were removed and added to 1×10^5 uninfected MT-2 cells after a 1:5 dilution with fresh CM. […]
WEAU-1.6, a kind gift of George Shaw, University of Alabama (^18), a CXCR4 utilizing isolate, was used for all studies. […] For testiing of the antiviral efficacy of compound 1200 in MT-2 were assessed every day using a Olympus (model) inverted microscope equipped with phase contrast objectives. […] A total of 200 cells were counted in each well, and when syncytia were noted, cells were removed and tested for viability by using trypan-blue. Results are expressed as the average of viable cells.

[5] = system: uninfected 174×CEM cells; assay: Effect on uninfected cells of the SIV assay; type: cell-based; conditions: 10, 1.0, 0.1 and 0.001 μg/ml
Procedure: Cells were acutely infected with approximately 400 TCID50 units of SIVmac251 for 90 min at 37° C. The cells were collected by centrifugation, washed twice with medium to remove free virus, then plated in 0.45 ml medium in 48-well tissue culture plates, at 10^5 cells per well. Compound 1200, prepared as a 10 mg/ml stock in DMSO, was then added to final concentrations of 10, 1.0, 0.1, and 0.001 μg/ml final concentrations, in triplicate cultures. Triplicate control cultures received medium only.

[6] = Human immunodeficiency virus 1, MT2, read-out: viable cells remaining in culture

**Q.** Which IC90 [1] does the source give for `CC(C)[C@H](NC(=O)[C@H](C)NC(=O)OCc1ccccc1)C(=O)N[C@@H](Cc1ccccc1)[C@@H](O)[C@H](O)[C@H](Cc1ccccc1)NC(=O)[C@@H](NC(=O)[C@H](C)NC(=O)OCc1ccccc1)C(C)C` [Compound 1b] here?
**A.** Its IC90 is 400 nM.

**Q.** And the “inhibition of HIV infection in tissue culture (in words)” value [2]?
**A.** Its value is “strongly inhibits”.

**Q.** And the “free virus in supernatants, transfer to uninfected MT-2 cells” value ([2]; 1:5 dilution, after 3 weeks)?
**A.** Its value is “remained uninfected”.

**Q.** What about the viability at 1.1 µM [2, 6] of the same compound?
**A.** The viability at 1.1 µM was 100%.

**Q.** And the viability at 5.5 µM [2, 6]?
**A.** The viability at 5.5 µM was 100%.

**Q.** What about the toxicity to cells [3] of the same compound?
**A.** The toxicity to cells was “not toxic”.

**Q.** And the “toxicity to host cells” value [4]?
**A.** The value was “minimal toxicity”.

**Q.** And the “effects on uninfected cells” value [5]?
**A.** Its value is “no effects noted”.
